Measurements taken from patent US20110237538A1, “TREATMENT OF LYSOSOMAL STORAGE DISORDERS AND OTHER PROTEOSTATIC DISEASES” (SUMMIT CORPORATION PLC, priority 2008, published 2011).

Assays:
Type in all cases: biochemical
[1] = target: T1, wild type (wt) beta-glucocerebrosidase (Homo sapiens, UniProt P04062); assay: beta-glucocerebrosidase activity assay in HL60 lysate (4MU-β-D-glc); settings: at a concentration of 100 μM, 0.5 mM 4MU-β-D-glc;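 note: fluorometric read-out of 4MU liberated from the substrate (ex 360 nm, em 450 nm) after 37 °C incubation, reaction stopped with sodium carbonate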
T1 construct: The lysates were used as a source for wild type (wt) beta-glucocerebrosidase; endogenous in cells; host or cells: HL60 (ECACC No. 98070106) lysate
T1 sequence (P04062 40-536): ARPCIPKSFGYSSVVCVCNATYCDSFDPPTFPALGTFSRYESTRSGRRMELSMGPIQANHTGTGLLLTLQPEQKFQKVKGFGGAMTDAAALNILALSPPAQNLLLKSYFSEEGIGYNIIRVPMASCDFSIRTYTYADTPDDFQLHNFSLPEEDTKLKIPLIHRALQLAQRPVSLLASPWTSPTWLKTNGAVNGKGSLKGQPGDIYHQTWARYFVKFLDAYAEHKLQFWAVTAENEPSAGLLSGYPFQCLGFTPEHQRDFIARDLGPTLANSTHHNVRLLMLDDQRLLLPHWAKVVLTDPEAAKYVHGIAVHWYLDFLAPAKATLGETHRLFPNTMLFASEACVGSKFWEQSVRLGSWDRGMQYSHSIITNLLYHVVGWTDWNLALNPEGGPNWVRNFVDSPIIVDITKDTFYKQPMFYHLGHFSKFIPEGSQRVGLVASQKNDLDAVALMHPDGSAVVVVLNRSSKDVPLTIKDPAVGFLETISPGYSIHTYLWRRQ

[2] = target: T2, wild type (wt) lysosomal alpha-glucosidase (Homo sapiens, UniProt P10253); assay: alpha-glucosidase activity assay in HL60 lysate (4MU-α-D-glc); settings: at a concentration of 100 uM, 0.5 mM 4MU-α-D-glc, pH 4.5;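 note: fluorometric rate of 4MU product release read at 360 nm excitation and 450 nm emission, reactions run at 37 °C in citric phosphate buffer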
T2 construct: The lysates were used as a source for wild type (wt) lysosomal alpha-glucosidase; endogenous in cells; host or cells: HL60 (ECACC No. 98070106) lysate

[3] = target: T3, wild type (wt) alpha-galactosidase (Homo sapiens, UniProt P06280); assay: alpha-galactosidase activity assay in HL60 lysate (4MU-α-D-gal); settings: at a concentration of 100 uM, 0.5 mM 4MU-α-D-gal, pH 4.5
T3 construct: The lysates were used as a source for wild type (wt) alpha-galactosidase; endogenous in cells; host or cells: HL60 (ECACC No. 98070106) lysate
T3 sequence (P06280 32-429): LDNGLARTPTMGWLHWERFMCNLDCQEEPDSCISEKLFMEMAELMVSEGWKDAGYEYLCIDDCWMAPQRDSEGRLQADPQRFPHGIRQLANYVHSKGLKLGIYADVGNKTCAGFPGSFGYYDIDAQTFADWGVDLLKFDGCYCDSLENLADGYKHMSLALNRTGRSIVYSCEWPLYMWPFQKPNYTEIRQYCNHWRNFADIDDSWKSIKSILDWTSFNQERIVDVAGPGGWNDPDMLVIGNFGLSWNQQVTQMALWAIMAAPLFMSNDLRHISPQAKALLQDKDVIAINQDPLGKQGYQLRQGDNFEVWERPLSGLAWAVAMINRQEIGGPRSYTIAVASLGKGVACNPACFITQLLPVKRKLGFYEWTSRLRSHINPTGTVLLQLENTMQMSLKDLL

[4] = test system: α-D-glucosidase (Bacillus sterothermophilus); assay: glycosidase assay with p-nitrophenyl substrates (Example 2); settings: 10 μl of 5 mM iminosugar solution in 70 μl incubation mixture; 20° C.
Experimental: The assays were conducted as described by Watson et al. 1997, Phytochemistry 46: 255-259 using p-nitrophenyl-substrates. Assays were carried out in microtitre plates. Enzymes were assayed in 0.1M citric acid/0.2M di-sodium hydrogen phosphate (Mcllvaine) buffers at the optimum pH for the enzyme. All assays were carried out at 20° C. All enzymes and substrates were purchased from Sigma Aldrich Chemicals Limited. The incubation mixture consisted of 10 μl of enzyme solution, 10 μl of the iminosugars solution (made up in deionised water at 5 mM) and 50 μl of the appropriate 5 mM p-nitrophenyl substrate made up in McIlvaine buffer at the optimum pH for the enzyme. The reactions were stopped with 0.4M glycine (pH 10.4) during the exponential phase of the reaction, which was determined at the beginning of the assay using blanks with water, which were incubated for a range of time periods to measure the reaction rate using 5 mM substrate solution. Absorbances were read at 405 nm. Water was substituted for the inhibitors in the blanks.
The glycosidases used were α-D-glucosidase (yeast), α-D-glucosidase (Bacillus sterothermophilus), α-D-glucosidase (rice), amyloglucosidase (Aspergillus niger), β-D-glucosidase (almond), α-D-galactosidase (green coffee beans), β-D-galactosidase (bovine liver), α-L-fucosidase (bovine kidney), α-D-mannosidase (Jack bean), β-D-mannosidase (Cellullomonas fimi), Naringinase (Penicillium decumbens), N-acetyl-β-D-glucosaminidase (Bovine kidney), N-acetyl-β-D-glucosaminidase (Aspergillus oryzae) and N-acetyl-β-D-glucosaminidase (Jack bean)

Row | Structure (SMILES) | inhibition at 100 µM [1] | other results
1 | OC[C@@H]1NC[C@H](O)[C@H]1O [Compound 160, (2S,3S,4S)-2-(hydroxymethyl)pyrrolidine-3,4-diol] | > 50% | inhibition at 100 µM [2]: > 50%
2 | OCCN1[C@H](CO)[C@H](O)[C@H](O)[C@H]1CO [Compound 168, (2R,3R,4S,5R)-1-(2-hydroxyethyl)-2,5-bis(hydroxymethyl)pyrrolidine-3,4-diol] | – | inhibition at 100 µM [3]: > 50%
3 | CC(=O)N[C@H]1C[C@@H](CO)N(CCO)C1 [Compound 347, N-((3S,5S)-1-(2-hydroxyethyl)-5-(hydroxymethyl)pyrrolidin-3-yl)acetamide] | – | Promotion of glycosidase activity: α-D-glucosidase (Bacillus sterothermophilus) [4]: 68 % increase in absorbance compared to the water controls
4 | OCCCCCCCCCN1C[C@H](O)[C@@H](O)[C@H](O)[C@H]1CO [Compound 724, (2R,3R,4R,5S)-2-(hydroxymethyl)-1-(9-hydroxynonyl)piperidine-3,4,5-triol] | > 50% | inhibition at 100 µM [2]: > 50%
5 | OC[C@@H]1[C@@H](O)[C@H](O)[C@@H](O)CN1Cc1ccc(-c2ccccc2)cc1 [Compound 524, (2R,3R,4R,5S)-1-(biphenyl-4-ylmethyl)-2-(hydroxymethyl)piperidine-3,4,5-triol] | > 50% | inhibition at 100 µM [2]: > 50%
6 | O=C1N[C@H](CO)[C@@H](O)[C@H](O)[C@@H]1O [Compound 112, (3S,4S,5R,6R)-3,4,5-trihydroxy-6-(hydroxymethyl)piperidin-2-one] | – | inhibition at 100 µM [3]: > 50%
7 | CCCCOC(=O)[C@@H]1[C@@H](O)[C@H](O)[C@@H](O)CN1CCCC [Compound 205, (2S,3R,4R,5S)-butyl 1-butyl-3,4,5-trihydroxypiperidine-2-carboxylate] | – | Promotion of glycosidase activity: α-D-glucosidase (Bacillus sterothermophilus) [4]: 60 % increase in absorbance compared to the water controls
8 | N[C@@H]1CN[C@H](CO)C1 [Compound 344, ((2S,4S)-4-aminopyrrolidin-2-yl)methanol] | – | Promotion of glycosidase activity: α-D-glucosidase (Bacillus sterothermophilus) [4]: 71 % increase in absorbance compared to the water controls
9 | C[C@H]1N[C@H](CO)[C@H](O)[C@H](O)[C@H]1O [Compound 263, (2R,3S,4R,5S,6R)-2-(hydroxymethyl)-6-methylpiperidine-3,4,5-triol] | – | inhibition at 100 µM [3]: > 50%
10 | OC[C@@H]1[C@@H](O)[C@H](O)[C@@H](O)CN1CCCOc1ccccc1 [Compound 288, (2R,3R,4R,5S)-2-(hydroxymethyl)-1-(3-phenoxypropyl)piperidine-3,4,5-triol] | > 50% | inhibition at 100 µM [2]: > 50%
11 | OC[C@H]1N[C@H](CO)[C@H](O)C(O)[C@H]1O (stereo partly drawn) [Compound 189, (2R,3S,5S,6R)-2,6-bis(hydroxymethyl)piperidine-3,4,5-triol] | – | inhibition at 100 µM [3]: > 50%
12 | CN1C[C@@H](O)[C@H](O)[C@@H](O)C1 [Compound 253, (3R,4r,5S)-1-methylpiperidine-3,4,5-triol] | – | Promotion of glycosidase activity: α-D-glucosidase (Bacillus sterothermophilus) [4]: 56 % increase in absorbance compared to the water controls
13 | O[C@H]1[C@H](O)[C@@H](O)CN2CC[C@H](O)[C@H]12 [Compound 104, (1S,6S,7R,8R,8aR)-octahydroindolizine-1,6,7,8-tetraol] | > 50% | inhibition at 100 µM [2]: > 50%
14 | O[C@@H]1[C@@H](O)[C@H](O)[C@]2(O)C[C@@H](O)[C@H]1N2 [Compound 33, (1R,2S,3R,4S,5R,6R)-8-azabicyclo[3.2.1]octane-1,2,3,4,6-pentaol] | > 50% | –
15 | OC[C@@H]1[C@@H](O)[C@H](O)[C@@H](CO)N1CCCOc1ccccc1 [Compound 343, (2R,3R,4R,5R)-2,5-bis(hydroxymethyl)-1-(3-phenoxypropyl)pyrrolidine-3,4-diol] | > 50% | inhibition at 100 µM [2]: > 50%
16 | OC[C@@H]1CNC[C@@H](O)[C@H]1O [Compound 219, (3R,4S,5S)-5-(hydroxymethyl)piperidine-3,4-diol] | > 50% | –
17 | CN1C[C@H](O)[C@@H](O)[C@H](O)[C@H]1CO [Compound 3, (2R,3R,4R,5S)-2-(hydroxymethyl)-1-methylpiperidine-3,4,5-triol] | > 50% | inhibition at 100 µM [2]: > 50%
18 | OCC1OC(O[C@@H]2[C@@H](O)[C@H](O)[C@]3(O)CC[C@H]2N3)C(O)C(O)C1O (stereo partly drawn) [Compound 105, (1R,2S,3S,4S,5R)-4-(3,4,5-trihydroxy-6-(hydroxymethyl)tetrahydro-2H-pyran-2-yloxy)-8-azabicyclo[3.2.1]octane-1,2,3-triol] | > 50% | –
19 | OC[C@H]1[C@@H](O)[C@H](O)[C@H]2[C@H](O)[C@@H](O)CN21 [Compound 129, (1R,2R,3S,6S,7S,7aR)-3-(hydroxymethyl)hexahydro-1H-pyrrolizine-1,2,6,7-tetraol] | > 50% | –
20 | O=C(NC[C@H]1[C@@H](O)[C@@H](O)CN1Cc1ccc(-c2ccccc2)cc1)c1ccc(-c2ccccc2)cc1 [Compound 701, N-(((2S,3R,4S)-1-(biphenyl-4-ylmethyl)-3,4-dihydroxypyrrolidin-2-yl)methyl)biphenyl-4-carboxamide] | > 50% | –
21 | O=C(O)CN1C[C@@H](CO)[C@H](O)[C@@H](O)C1 [Compound 451, 2-((3S,4S,5S)-3,4-dihydroxy-5-(hydroxymethyl)piperidin-1-yl)acetic acid] | > 50% | –
22 | OCCN1C[C@@H](CO)[C@H](O)[C@@H](O)C1 [Compound 640, (3S,4S,5S)-1-(2-hydroxyethyl)-5-(hydroxymethyl)piperidine-3,4-diol] | > 50% | –
23 | CCCCCCCCCN1[C@H](CO)[C@@H](O)[C@H](O)[C@H]1CO [Compound 555, (2R,3R,4R,5R)-2,5-bis(hydroxymethyl)-1-nonylpyrrolidine-3,4-diol] | > 50% | –
24 | CCCCNC(=O)C1N[C@@H](C)[C@H](O)[C@@H](O)[C@H]1O (stereo partly drawn) [Compound 265, (3S,4R,5S,6S)-N-butyl-3,4,5-trihydroxy-6-methylpiperidine-2-carboxamide] | > 50% | –
25 | CCCCCCCCCN1C[C@@H](O)[C@H](O)[C@H](O)[C@@H](O)C1 [Compound 736, (3R,4S,5R,6S)-1-nonylazepane-3,4,5,6-tetraol] | > 50% | –
26 | OC[C@H]1CNC[C@@H](O)[C@@H]1O [Compound 279, (3R,4R,5R)-5-(Hydroxymethyl)-3,4-piperidinediol] | > 50% | –
27 | CC(O)CC[C@@H]1[C@@H](O)C[C@@H]2[C@H](O)[C@H](O)[C@@H](CO)N21 (stereo partly drawn) [Compound 66, (1S,2R,3R,5R,6S,7aR)-5-(3-hydroxybutyl)-3-(hydroxymethyl)hexahydro-1H-pyrrolizine-1,2,6-triol] | > 50% | –
28 | C[C@@H]1NC(C(=O)NCc2ccccc2)[C@H](O)[C@H](O)[C@H]1O (stereo partly drawn) [Compound 267, (3S,4R,5S,6S)-N-benzyl-3,4,5-trihydroxy-6-methylpiperidine-2-carboxamide] | > 50% | –
29 | OC[C@@H]1[C@@H](O)[C@H](O)[C@@H](CO)N1CCOCc1ccccc1 [Compound 556, (2R,3R,4R,5R)-1-(2-(benzyloxy)ethyl)-2,5-bis(hydroxymethyl)pyrrolidine-3,4-diol] | > 50% | inhibition at 100 µM [2]: > 50%
